Results published in ChEMBL document CHEMBL4842334, “Tropolone-Bearing Sesquiterpenes from Juniperus chinensis: Structures, Photochemistry and Bioactivity” (2021).
Calls of active or inactive are those of the source. The calls are words filed in the database; no cut-off is given here.

Key:
[1] = tested on: HepG2; assay: Inhibition of lipid accumulation in human HepG2 cells at 20 uM incubated for 24 hrs by Oil Red O staining analysis relative to oleic acid; type: functional
[2] = tested on: HepG2; assay: Increase in glycerol release in human HepG2 cells at 25 uM incubated for 24 hrs by microplate reader analysis; type: functional, cell-based
[3] = Reduction in melanin production in mouse Melan-a cells at 5 uM measured after 72 hrs by microplate reader; type: functional
[4] = tested on: Melan-a; assay: Reduction in tyrosinase protein expression in mouse Melan-a cells at 5 uM measured after 72 hrs by Western blot analysis; type: functional, cell-based
[5] = tested on: Melan-a; assay: Reduction in TRP1 protein expression in mouse Melan-a cells at 5 uM measured after 72 hrs by Western blot analysis; type: functional, cell-based
[6] = molecular target: T1, Tyrosinase (Agaricus bisporus) (UniProt O42713); assay: Inhibition of mushroom tyrosinase activity at 5 uM measured after 1 hr by microplate reader analysis
T1 sequence (whole entry): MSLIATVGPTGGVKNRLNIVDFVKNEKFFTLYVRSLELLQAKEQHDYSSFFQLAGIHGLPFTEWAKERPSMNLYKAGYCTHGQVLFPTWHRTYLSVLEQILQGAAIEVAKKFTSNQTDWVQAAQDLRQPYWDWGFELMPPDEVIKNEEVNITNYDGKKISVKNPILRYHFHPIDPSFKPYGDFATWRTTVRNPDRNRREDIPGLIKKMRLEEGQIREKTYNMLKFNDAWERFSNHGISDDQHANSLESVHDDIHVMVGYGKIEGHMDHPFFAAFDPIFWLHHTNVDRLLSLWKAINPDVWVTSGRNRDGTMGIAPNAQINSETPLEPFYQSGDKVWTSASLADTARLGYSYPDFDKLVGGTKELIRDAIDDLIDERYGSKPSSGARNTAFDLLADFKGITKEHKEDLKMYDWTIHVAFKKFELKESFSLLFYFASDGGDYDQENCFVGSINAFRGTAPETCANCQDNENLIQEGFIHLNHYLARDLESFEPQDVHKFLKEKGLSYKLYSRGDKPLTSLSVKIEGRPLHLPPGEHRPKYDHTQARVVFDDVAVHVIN

[7] = tested on: Melan-a; assay: Reduction in MITF protein expression in mouse Melan-a cells at 5 uM measured after 72 hrs by Western blot analysis; type: functional, cell-based

SMILES: C/C(=C\CC1=C[C@@H]2C(=O)C(O)=C[C@]12C(C)C)CO
- inhibition at 20 µM [1]: 29%

SMILES: C/C(=C\C[C@@]12C=C[C@]1(O)C(=O)C=C2C(C)C)CO
- inhibition at 20 µM [1]: 29%
- Activity [2]: Active

SMILES: C/C(=C\C[C@]12C=C[C@@]1(O)C(=O)C=C2C(C)C)CO
- inhibition at 20 µM [1]: 29%
- Activity [2]: Active

SMILES: C/C(=C\Cc1ccc(=O)c(O)cc1C(C)C)CO
- inhibition at 20 µM [1]: 29%
- inhibition at 5 µM [3]: 10%
- Activity [4]: Active
- Activity [5]: Active
- inhibition [6]: Active
- Activity [7]: Active
- Activity [2]: Active

SMILES: C/C(=C\CC1=C[C@H]2C(=O)C(O)=C[C@@]12C(C)C)CO
- inhibition at 20 µM [1]: 29%
